# Experimental data published in ChEMBL document CHEMBL1681663, “Design and synthesis of novel tetrahydronaphthyl azoles and related cyclohexyl azoles as antileishmanial agents” (Bioorg Med Chem Lett, 2011).
# The source made the active and inactive calls. The calls are words filed in the database; no cut-off is given here.
# Tests used:
# [1] = tested on: Leishmania donovani; experiment: Antileishmanial activity against promastigotes of Leishmania donovani at 10 ug/ml; assay type: functional
# [2] = tested on: Leishmania donovani; experiment: Antileishmanial activity against amastigotes of Leishmania donovani; assay type: functional, organism-based
# [3] = Cytotoxicity against mouse J774A1 cells by MTT assay; assay type: cell-based, J774.A1
# [4] = (§1) Selectivity index, ratio of CC50 for mouse J774A1 cells to IC50 for amastigotes of Leishmania donovani; assay type: functional, J774.A1
# [5] = tested on: Leishmania donovani; experiment: Antileishmanial activity against amastigotes of Leishmania donovani at 10 ug/ml; assay type: functional, organism-based
# [6] = tested on: J774.A1; experiment: as §1; assay type: functional
# [7] = tested on: Leishmania donovani; experiment: Antileishmanial activity against Leishmania donovani infected in Hamster assessed as inhibition of parasites growth at 50 mg/kg, ip for 5 times; assay type: functional; conditions: for inhibition in vivo at 50 mg/kg: route intraperitoneal
Molecule,IC50 [2] [µg/mL],inhibition at 10 µg/mL [1] [%],CC50 [3] [µg/mL],Ratio CC50/IC50 [4],inhibition [5],Ratio CC50/IC50 [6],inhibition [7] [%],inhibition in vivo at 50 mg/kg [7] [%]
O=[N+]([O-])c1ccc(O[C@H]2CCc3ccccc3[C@@H]2n2ccnc2)c(C(F)(F)F)c1 (racemic),1.59,91.2,10.7,6.73,,,,
O=[N+]([O-])c1ccc(O[C@H]2CCc3ccccc3[C@@H]2n2ccnn2)cc1 (racemic),,99.6,> 100,,inactive,,,
sodium stibogluconate,,,,,,6.38,92.2,
FC(F)(F)c1ccc(O[C@H]2CCc3ccccc3[C@@H]2n2ccnc2)cc1 (racemic),,60,52.5,,inactive,,,
Clc1cccc(CO[C@H]2CCCC[C@@H]2n2ccnc2)c1 (racemic),1.4,96.9,12.8,9.1,,,,
NC[C@@H]1O[C@H](O[C@H]2[C@@H](O)[C@H](O[C@@H]3[C@@H](O)[C@H](N)C[C@H](N)[C@H]3O[C@H]3O[C@H](CO)[C@@H](O)[C@H](O)[C@H]3N)O[C@@H]2CO)[C@H](N)[C@@H](O)[C@@H]1O [PAROMOMYCIN],24.8,124,53.3,2.15,,,,46.7
FC(F)(F)c1ccc(O[C@H]2CCCC[C@@H]2n2ccnc2)cc1 (racemic),,99.8,,,inactive,,,
O[C@H]1CCc2ccccc2[C@@H]1n1ccnn1 (racemic),,90.4,35.6,,inactive,,,
O=[N+]([O-])c1cc(C(F)(F)F)ccc1O[C@H]1CCc2ccccc2[C@@H]1n1ccnc1 (racemic),3.58,99.6,20.1,5.61,,,,
O=[N+]([O-])c1ccc(O[C@H]2CCc3ccccc3[C@@H]2n2ccnn2)c(F)c1 (racemic),,100,> 100,,inactive,,,
O=[N+]([O-])c1cc(C(F)(F)F)ccc1O[C@H]1CCCC[C@@H]1n1ccnc1 (racemic),5.07,99,22.1,4.36,,,,
O=[N+]([O-])c1ccc(O[C@H]2CCCC[C@@H]2n2ccnc2)cc1 (racemic),2.23,98.6,8.27,3.7,,,,

# More lines, main results first:
IC50 [2] [µg/mL],Molecule,inhibition at 10 µg/mL [1] [%],CC50 [3] [µg/mL],Ratio CC50/IC50 [4],inhibition [5],Ratio CC50/IC50 [6],inhibition [7] [%],inhibition in vivo at 50 mg/kg [7] [%]
1.34,Clc1cccc(CO[C@H]2CCc3ccccc3[C@@H]2n2ccnc2)c1 (racemic),100,15.5,11.53,,,,32.1
0.64,Clc1ccc(Cl)c(CO[C@H]2CCc3ccccc3[C@@H]2n2ccnc2)c1 (racemic),100,22.3,34.78,,,,83.3
> 50,O[C@H]1CCc2ccccc2[C@@H]1n1ccnc1 (racemic),60,> 100,2,,,,
2.44,Clc1ccc(CO[C@H]2CCCC[C@@H]2n2ccnc2)c(Cl)c1 (racemic),99.5,3.43,1.41,,,,
4.53,O=[N+]([O-])c1ccc(O[C@H]2CCc3ccccc3[C@@H]2n2ccnc2)cc1 (racemic),94.9,21.4,4.73,,,,
4.03,Clc1ccc(Cl)c(CO[C@H]2CCCC[C@@H]2n2ccnc2)c1 (racemic),89.6,27.2,6.73,,,,
6.52,O=[N+]([O-])c1ccc(O[C@H]2CCc3ccccc3[C@@H]2n2ccnc2)c(F)c1 (racemic),100,32.1,4.92,,,,
3.01,Clc1cccc(CO[C@H]2CCc3ccccc3[C@@H]2n2ccnn2)c1 (racemic),100,30.2,10.03,,,,
2.15,O=[N+]([O-])c1ccc(O[C@H]2CCCC[C@@H]2n2ccnc2)c(F)c1 (racemic),95.7,14.2,6.62,,,,
